In ChEMBL document CHEMBL2010743, “Adamantyl N-benzylbenzamide: new series of depigmentation agents with tyrosinase inhibitory activity” (Bioorg Med Chem Lett, 2012):

Key:
[1] = Cytotoxicity in mouse B16 cells assessed as cell viability at 1 uM after 72 hrs; type: cell-based; details: read-out: Activity
in vitro = details: mouse, B16 cells
Description: Cytotoxicity in mouse B16 cells assessed as cell viability at 10 uM after 72 hrs

B16 [2] = assay: Antimelanogenic activity in mouse B16 cells assessed as inhibition of melanogenesis at 1 uM; type: functional
Tyrosinase = molecular target: T1, Tyrosinase (Agaricus bisporus, UniProt O42713); assay: Inhibition of mushroom tyrosinase
T1 sequence (O42713 whole entry): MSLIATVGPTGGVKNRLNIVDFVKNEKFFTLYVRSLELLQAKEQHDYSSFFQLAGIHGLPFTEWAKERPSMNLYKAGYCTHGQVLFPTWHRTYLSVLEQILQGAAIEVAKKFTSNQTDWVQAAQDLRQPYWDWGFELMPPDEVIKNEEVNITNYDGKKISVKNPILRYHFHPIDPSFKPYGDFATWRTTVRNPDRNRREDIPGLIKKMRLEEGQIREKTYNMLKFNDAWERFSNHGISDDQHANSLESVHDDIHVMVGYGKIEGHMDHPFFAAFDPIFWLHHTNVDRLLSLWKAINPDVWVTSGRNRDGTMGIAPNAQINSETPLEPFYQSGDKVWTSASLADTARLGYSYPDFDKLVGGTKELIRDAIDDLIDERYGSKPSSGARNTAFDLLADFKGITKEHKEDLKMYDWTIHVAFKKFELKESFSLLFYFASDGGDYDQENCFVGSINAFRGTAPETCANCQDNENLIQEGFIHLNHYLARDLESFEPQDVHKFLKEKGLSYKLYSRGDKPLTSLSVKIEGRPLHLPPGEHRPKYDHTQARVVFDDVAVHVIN

B16 [3] = assay: cells; details: Mus musculus
[4] = molecular target: T2, Tyrosinase (Agaricus bisporus) (UniProt O42713); assay: Inhibition of mushroom tyrosinase at 1 uM
T2 sequence (whole entry): T1 sequence (O42713 whole entry)

B16 [5] = assay: Ratio of kojic acid IC50 to compound IC50 for inhibition of melanogenesis in mouse B16 cells; type: functional
[6] = molecular target: T2, Tyrosinase (Agaricus bisporus); assay: Ratio of kojic acid IC50 to compound IC50 for mushroom tyrosinase
B16 [7] = assay: Antimelanogenic activity in mouse B16 cells assessed as inhibition of melanogenesis at 3 uM; type: functional

Q: What does the source list for `COc1ccc(C(=O)NCc2ccc(O)cc2O)cc1C12CC3CC(CC(C3)C1)C2`?
A: viability at 72 h, 1 µM [1]: 100%; viability at 72 h, 10 µM (in vitro): 44%; inhibition at 1 µM (B16 [2]): < 5%; IC50 (Tyrosinase): 1400 nM

Q: For `CCCCc1ccc(O)cc1O` [RUCINOL], which IC50 (B16 [3]) is on record?
A: 20000 nM

Q: Which inhibition [4] does the source give for `O=C(NCc1ccc(O)cc1)c1cc(C23CC4CC(CC(C4)C2)C3)c(O)cc1O` here?
A: < 5%

Q: Which IC50 (B16 [3]) does the source give for `COc1cc(O)c(C(=O)NCc2ccc(O)cc2O)cc1C12CC3CC(CC(C3)C1)C2` here?
A: 1800 nM

Q: And the viability at 72 h, 10 µM (in vitro)?
A: 100%

Q: What about the IC50 (Tyrosinase) of the same compound?
A: 800 nM

Q: And the “Ratio IC50” value (B16 [5])?
A: 200

Q: What does the source list for `COc1ccc(C(=O)NCc2ccc(O)cc2O)c(OC)c1`?
A: IC50 (B16 [3]): 14200 nM; viability at 72 h, 10 µM (in vitro): 100%; IC50 (Tyrosinase): 400 nM; Ratio IC50 [6]: 30

Q: For `O=C(NCc1ccc(O)cc1O)c1cc(C23CC4CC(CC(C4)C2)C3)c(O)cc1O`, which viability at 72 h, 1 µM [1] is on record?
A: 86%

Q: And the viability at 72 h, 10 µM (in vitro)?
A: 62%

Q: What about the inhibition at 1 µM (B16 [2]) of the same compound?
A: < 5%

Q: What about the IC50 (Tyrosinase) of the same compound?
A: 1100 nM

Q: What about the inhibition at 3 µM (B16 [7]) of the same compound?
A: 90%

Q: Which inhibition [4] does the source give for `O=C(NCc1ccccc1O)c1cc(C23CC4CC(CC(C4)C2)C3)c(O)cc1O` here?
A: < 5%

Q: With `O=C(NCc1ccc(O)cc1O)c1ccc(O)c(C23CC4CC(CC(C4)C2)C3)c1` as the compound, how does the viability at 72 h, 1 µM [1] read?
A: 99%

Q: And the viability at 72 h, 10 µM (in vitro)?
A: 41%

Q: What about the inhibition at 1 µM (B16 [2]) of the same compound?
A: < 5%

Q: What about the IC50 (Tyrosinase) of the same compound?
A: 900 nM

Q: Which IC50 (B16 [3]) does the source give for `COc1cc(OC)c(C23CC4CC(CC(C4)C2)C3)cc1C(=O)NCc1ccc(O)cc1O` here?
A: 1100 nM

Q: And the viability at 72 h, 10 µM (in vitro)?
A: 95%

Q: And the IC50 (Tyrosinase)?
A: 900 nM

Q: What about the “Ratio IC50” value (B16 [5]) of the same compound?
A: 200

Q: With `COc1ccc(C(=O)NCc2ccc(O)cc2O)c(O)c1` as the compound, how does the IC50 (B16 [3]) read?
A: 27600 nM

Q: What about the viability at 72 h, 10 µM (in vitro) of the same compound?
A: 96%

Q: And the IC50 (Tyrosinase)?
A: 300 nM

Q: What about the Ratio IC50 [6] of the same compound?
A: 30

Q: Which IC50 (B16 [3]) does the source give for `O=C(NCc1ccc(O)cc1O)c1ccc(O)cc1O` here?
A: 26700 nM

Q: And the viability at 72 h, 10 µM (in vitro)?
A: 100%

Q: And the IC50 (Tyrosinase)?
A: 900 nM

Q: What about the Ratio IC50 [6] of the same compound?
A: 30

Q: For `COc1ccc(CNC(=O)c2cc(C34CC5CC(CC(C5)C3)C4)c(O)cc2O)c(OC)c1`, which inhibition [4] is on record?
A: < 5%
